# Source: US8729078B2, “Inhibitors of bruton's tyrosine kinase” (Hoffmann-La Roche Inc., priority 2011, dated 2014)
# Columns and labels:
# [1] = test system: B cells in human whole blood (CD69 expression); assay: Inhibition of B cell activation in whole blood measured by CD69 expression; format: cell-based; details: anti-IgM stimulation, CD69-positive CD20-positive cells
# Experimental: Inhibition of B Cell Activation in Whole Blood Measured by CD69 Expression
# A procedure to test the ability of Btk inhibitors to suppress B cell receptor-mediated activation of B cells in human blood is as follows:
# Human whole blood (HWB) is obtained from healthy volunteers, with the following restrictions: 24 hr drug-free, non-smokers. Blood is collected by venipuncture into Vacutainer tubes anticoagulated with sodium heparin. Test compounds are diluted to ten times the desired starting drug concentration in PBS (20×), followed by three-fold serial dilutions in 10% DMSO in PBS to produce a nine point dose-response curve. 5.5 μl of each compound dilution is added in duplicate to a 2 ml 96-well V bottom plate (Analytical Sales and Services, #59623-23); 5.5 μl of 10% DMSO in PBS is added to control and no-stimulus wells. HWB (100 μl) is added to each well, and after mixing the plates are incubated at 37 C, 5% CO2, 100% humidity for 30 minutes. Goat F(ab′)2 anti-human IgM (Southern Biotech, #2022-14) (10 μl of a 500 μg/ml solution, 50 μg/ml final concentration) is added to each well (except the no-stimulus wells) with mixing and the plates are incubated for an additional 20 hours.
# At the end of the 20 hour incubation, samples are incubated with florescent-probe-labeled anti-bodies (15 μl PE Mouse anti-Human CD20, BD Pharmingen, #555623, and/or 20 ul APC Mouse anti-Human CD69, BD Pharmingen #555533) for 30 minutes, at 37 C, 5% CO2, 100% humidity. Included are induced control, unstained and single stains for compensation adjustments and initial voltage settings. Samples are then lysed with 1 ml of 1× Pharmingen Lyse Buffer (BD Pharmingen #555899), and plates are centrifuged at 1800 rpm for 5 minutes. Supernatants are removed via suction and the remaining pellets are lysed again with another 1 ml of 1× Pharmingen Lyse Buffer, and plates are spun down as before. Supernatants are aspirated and remaining pellets are washed in FACs buffer (PBS+1% FBS). After a final spin, the supernantants are removed and pellets are resuspended in 180 μl of FACs buffer. Samples are transferred to a 96 well plate suitable to be run on the HTS 96 well system on the BD LSR II flow cytometer.
# Using appropriate excitation and emission wavelengths for the fluorophores used, data are acquired and percent positive cell values are obtained using Cell Quest Software. Results are initially analyzed by FACS analysis software (Flow Jo). […] The IC50 values are calculated using XLfit software version 3, equation 201.
# [2] = target: Btk (Homo sapiens (Human), UniProt Q06187); assay: Bruton's Tyrosine Kinase (Btk) inhibition assay (FRET BTK); format: biochemical
# Chain of Btk (Q06187 whole entry): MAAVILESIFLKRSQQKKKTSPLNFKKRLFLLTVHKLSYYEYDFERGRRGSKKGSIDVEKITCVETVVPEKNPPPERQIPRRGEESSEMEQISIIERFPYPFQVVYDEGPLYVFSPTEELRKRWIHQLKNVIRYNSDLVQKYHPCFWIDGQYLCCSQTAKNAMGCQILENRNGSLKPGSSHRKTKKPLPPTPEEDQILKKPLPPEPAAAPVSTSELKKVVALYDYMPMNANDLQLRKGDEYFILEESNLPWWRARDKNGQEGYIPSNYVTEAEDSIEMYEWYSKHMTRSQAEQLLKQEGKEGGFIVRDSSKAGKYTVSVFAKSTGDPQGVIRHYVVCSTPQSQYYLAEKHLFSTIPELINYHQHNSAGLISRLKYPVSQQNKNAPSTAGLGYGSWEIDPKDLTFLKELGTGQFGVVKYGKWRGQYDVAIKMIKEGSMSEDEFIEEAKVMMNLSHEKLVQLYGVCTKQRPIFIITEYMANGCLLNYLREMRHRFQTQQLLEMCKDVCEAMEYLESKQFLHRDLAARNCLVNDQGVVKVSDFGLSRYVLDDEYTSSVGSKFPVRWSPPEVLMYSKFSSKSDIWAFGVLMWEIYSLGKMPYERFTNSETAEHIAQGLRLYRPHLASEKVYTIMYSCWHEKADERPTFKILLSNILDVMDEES
Compound,IC50 [1] [nM],IC50 [2] [nM]
"CC(C)(C)c1cc(F)c2c(=O)n(-c3cccc(-n4cc(C(N)=O)c5ccccc54)c3CO)ncc2c1 [Compound I-17, 1-[3-(6-tert-Butyl-8-fluoro-1-oxo-1H-phthalazin-2-yl)-2-hydroxymethyl-phenyl]-1H-indole-3-carboxylic acid amide]",2660,
"CN(C)Cc1ccc2c(C(N)=O)cn(-c3cccc(-n4ncc5cc(C(C)(C)C)cc(F)c5c4=O)c3CO)c2n1 [Compound I-52, 1-[3-(6-tert-Butyl-8-fluoro-1-oxo-1H-phthalazin-2-yl)-2-hydroxymethyl-phenyl]-6-dimethylaminomethyl-1H-pyrrolo[2,3-b]pyridine-3-carboxylic acid amide]",1070,
"Cn1cc(-c2cccc(-n3ncc4cc(C(C)(C)C)ccc4c3=O)c2CO)cc1C(N)=O [Compound I-4, 4-[3-(6-tert-Butyl-1-oxo-1H-phthalazin-2-yl)-2-hydroxymethyl-phenyl]-1-methyl-1H-pyrrole-2-carboxylic acid amide]",3600,11.6
"CN1Cc2cc(C(C)(C)C)ccc2C(=O)N1c1cccc(-c2cc(C(N)=O)n(C)c2)c1CO [Compound I-14, 4-[3-(6-tert-Butyl-3-methyl-1-oxo-3,4-dihydro-1H-phthalazin-2-yl)-2-hydroxymethyl-phenyl]-1-methyl-1H-pyrrole-2-carboxylic acid amide]",4740,26.7
"Cn1cc(-c2cccc(-n3ncc4cc(C(C)(C)C)cc(F)c4c3=O)c2CO)nc1C(N)=O [Compound I-8, 4-[3-(6-tert-Butyl-8-fluoro-1-oxo-1H-phthalazin-2-yl)-2-hydroxymethyl-phenyl]-1-methyl-1H-imidazole-2-carboxylic acid amide]",1910,18.2
"CC(C)(C)c1ccc2c(=O)n(-c3cccc(-n4cc(C(N)=O)c5ccccc54)c3CO)ncc2c1 [Compound I-18, 1-[3-(6-tert-Butyl-1-oxo-1H-phthalazin-2-yl)-2-hydroxymethyl-phenyl]-1H-indole-3-carboxylic acid amide]",10700,
"Cn1cc(-c2cccc(-n3ncc4cc(C(C)(C)C)cc(CO)c4c3=O)c2CO)cc1C(N)=O [Compound I-12, 4-[3-(6-tert-Butyl-8-hydroxymethyl-1-oxo-1H-phthalazin-2-yl)-2-hydroxymethyl-phenyl]-1-methyl-1H-pyrrole-2-carboxylic acid amide]",> 500,696
"CC(C)(C)c1cc(F)c2c(=O)n(-c3cccc(-c4nc(C(N)=O)cs4)c3CO)ncc2c1 [Compound I-7, 2-[3-(6-tert-Butyl-8-fluoro-1-oxo-1H-phthalazin-2-yl)-2-hydroxymethyl-phenyl]-thiazole-4-carboxylic acid amide]",> 5000,130
"Cn1cc(-c2cccc(-n3ncc4cc(C(C)(C)C)cc(F)c4c3=O)c2CO)cc1C(N)=O [Compound I-9, 4-[3-(6-tert-Butyl-8-fluoro-1-oxo-1H-phthalazin-2-yl)-2-hydroxymethyl-phenyl]-1-methyl-1H-pyrrole-2-carboxylic acid amide]",1260,2.51
"CC(C)(C)c1cc(F)c2c(=O)n(-c3cccc(-c4coc(C(N)=O)c4)c3CO)ncc2c1 [Compound I-11, 4-[3-(6-tert-Butyl-8-fluoro-1-oxo-1H-phthalazin-2-yl)-2-hydroxymethyl-phenyl]-furan-2-carboxylic acid amide]",> 500,51.4
"CC(C)(C)c1ccc2c(=O)n(-c3cccc(-c4c[nH]c(C(N)=O)c4)c3CO)ncc2c1 [Compound I-3, 4-[3-(6-tert-Butyl-1-oxo-1H-phthalazin-2-yl)-2-hydroxymethyl-phenyl]-1H-pyrrole-2-carboxylic acid amide]",> 5000,27
"CC(C)(C)c1cc(F)c2c(=O)n(-c3cccc(-n4cc(C(N)=O)c(Nc5ccc(C(=O)N6CCOCC6)cc5)n4)c3CO)ncc2c1 [Compound I-20, 1-[3-(6-tert-Butyl-8-fluoro-1-oxo-1H-phthalazin-2-yl)-2-hydroxymethyl-phenyl]-3-[4-(morpholine-4-carbonyl)-phenylamino]-1H-pyrazole-4-carboxylic acid amide]",10,
"CC(C)(C)c1cc(F)c2c(=O)n(-c3cccc(-c4ccc(C(N)=O)o4)c3CO)ncc2c1 [Compound I-10, 5-[3-(6-tert-Butyl-8-fluoro-1-oxo-1H-phthalazin-2-yl)-2-hydroxymethyl-phenyl]-furan-2-carboxylic acid amide]",> 5000,832
"CC(C)(C)c1cc(F)c2c(=O)n(-c3cccc(-n4cc(C(N)=O)c5ccc(C(O)CO)nc54)c3CO)ncc2c1 (stereo not drawn) [Compound I-49, 1-[3-(6-tert-Butyl-8-fluoro-1-oxo-1H-phthalazin-2-yl)-2-hydroxymethyl-phenyl]-6-(1,2-dihydroxy-ethyl)-1H-pyrrolo[2,3-b]pyridine-3-carboxylic acid amide]",,13.9
"CC(C)(C)c1cc(F)c2c(=O)n(-c3cccc(-n4cc(C(N)=O)cn4)c3)ncc2c1 [Compound I-56, 1-[3-(6-tert-Butyl-8-fluoro-1-oxo-1H-phthalazin-2-yl)-phenyl]-1H-pyrazole-4-carboxylic acid amide]",,3700
"CC(C)(C)c1ccc2c(=O)n(-c3cccc(-n4cc(C(N)=O)c(Nc5ccc(C(=O)N6CCOCC6)cc5)n4)c3CO)ncc2c1 [Compound I-19, 1-[3-(6-tert-Butyl-1-oxo-1H-phthalazin-2-yl)-2-hydroxymethyl-phenyl]-3-[4-(morpholine-4-carbonyl)-phenylamino]-1H-pyrazole-4-carboxylic acid amide]",48,
"CC(C)(C)c1cc(F)c2c(=O)n(-c3cccc(-n4cc(C(N)=O)c5ccc(N6CCS(=O)(=O)CC6)nc54)c3CO)ncc2c1 [Compound I-50, 1-[3-(6-tert-Butyl-8-fluoro-1-oxo-1H-phthalazin-2-yl)-2-hydroxymethyl-phenyl]-6-(1,1-dioxo-1λ^6-thiomorpholin-4-yl)-1H-pyrrolo[2,3-b]pyridine-3-carboxylic acid amide]",,12.7
"Cc1ccc(Nc2nn(-c3cccc(-n4ncc5cc(C(C)(C)C)cc(F)c5c4=O)c3CO)cc2C(N)=O)nc1 [Compound I-33, 1-[3-(6-tert-Butyl-8-fluoro-1-oxo-1H-phthalazin-2-yl)-2-hydroxymethyl-phenyl]-3-(5-methyl-pyridin-2-ylamino)-1H-pyrazole-4-carboxylic acid amide]",,0.24
"Cn1c(C(N)=O)ccc1-c1cccc(-n2ncc3cc(C(C)(C)C)ccc3c2=O)c1CO [Compound I-5, 5-[3-(6-tert-Butyl-1-oxo-1H-phthalazin-2-yl)-2-hydroxymethyl-phenyl]-1-methyl-1H-pyrrole-2-carboxylic acid amide]",4370,
"CC(C)(C)c1cc(F)c2c(=O)n(-c3cccc(-n4cc(C(N)=O)c(Nc5ccc(C(=O)N6CCOCC6)cc5)n4)c3)ncc2c1 [Compound I-21, 1-[3-(6-tert-Butyl-8-fluoro-1-oxo-1H-phthalazin-2-yl)-phenyl]-3-[4-(morpholine-4-carbonyl)-phenylamino]-1H-pyrazole-4-carboxylic acid amide]",260,
"CC(=O)c1ccc(Nc2nn(-c3cccc(-n4ncc5cc(C(C)(C)C)ccc5c4=O)c3CO)cc2C(N)=O)cc1 [Compound I-53, 3-(4-Acetyl-phenylamino)-1-[3-(6-tert-butyl-1-oxo-1H-phthalazin-2-yl)-2-hydroxymethyl-phenyl]-1H-pyrazole-4-carboxylic acid amide]",,0.12
